Test results: patent US12692241B2, “Substituted triazine compound” (Nico Therapeutics, Inc., priority 2021, dated 2026)

System: IL-1β production in THP-1 cells (LPS and ATP; NLRP3 inflammasome activation)
Test: THP-1 IL-1β production inhibitory test
Assay type: cell-based, human
Details: Homo sapiens, THP-1, 2 h, PMA-differentiated THP-1 cells, LPS 50 ng/mL and ATP 5 mM, 2 hours, ELISA; read-out: IC50 (nM), IL-1β production
Description: THP-1 IL-1β Production Inhibitory Test
To THP-1 cells, 50 ng/mL PMA (phorbol myristate acetate, SIGMA, P1585) was added at 37° C. and then the cells were cultured for 2 days. […] The cells were cultured at 37° C. for 15 minutes. LPS (lipopolysaccharide, SIMGA, L2880) and ATP (adenosine triphosphate, SIGMA, A2383) were added such that the final concentrations of them became 50 ng/mL and 5 mM, respectively. The cells were cultured at 37° C. for 2 hours. The supernatant was collected and the concentration of IL-1β was measured by ELISA (DuoSet ELISA human IL-1β, R&D Systems, DY201). The concentration of IL-1β was plotted against the logarithm of the concentration of the test compound, and the IC50 value was calculated by sigmoidal Emax model nonlinear regression analysis.

Row | Structure (SMILES) | IC50
1 | Cc1nc(N[C@@H]2CCCNC2)nnc1-c1ccc(C(F)(F)F)cc1O [Example 138] | 5.6 nM
2 | Cc1nc(NCC2(N)CCOCC2)nnc1-c1ccc(C(F)(F)F)cc1O [Example 171] | 240 nM
3 | Oc1cc(C(F)(F)F)ccc1-c1nnc(N[C@@H]2CCOC[C@H]2O)nc1C1CC1 [Example 111] | 12 nM
4 | Cc1nc(N[C@@H]2CCCN(CCC#N)C2)nnc1-c1ccc(C(F)(F)F)cc1O [Example 181, 3-[(3R)-3-({6-[2-hydroxy-4-(trifluoromethyl)phenyl]-5-methyl-1,2,4-triazin-3-yl}amino)piperidin-1-yl]propanenitrile] | 12 nM
5 | CC(=O)N1CCC[C@@H](CNc2nnc(-c3ccc(C(F)(F)F)cc3O)c(C)n2)C1 [Example 153] | 7.8 nM
6 | Cc1nc(N[C@@H]2CCCC[C@H]2O)nnc1-c1cc(F)c(C(F)(F)F)cc1O [Example 169] | 38 nM
7 | Cc1nc(N[C@@H]2CCCC[C@@H](O)C2)nnc1-c1ccc(C(F)(F)F)cc1O [Example 79] | 14 nM
8 | CC(=O)NCCCCNc1nnc(-c2ccc(C(F)(F)F)cc2O)c(C)n1 [Example 86] | 12 nM
9 | Cc1nc(N[C@@H]2CCC[C@H](O)C2)nnc1-c1ccc(C(F)F)cc1O [Example 175] | 24 nM
10 | Cc1nc(N[C@@H]2CCC[C@H](O)C2)nnc1-c1cc(F)c(C(F)(F)F)cc1O [Example 176] | 43 nM
11 | Cc1nc(N[C@@H]2CC[C@@H](O)C2)nnc1-c1ccc(C(F)(F)F)cc1O [Example 30] | 18 nM
12 | Cc1nc(NC2CC(C)(O)C2)nnc1-c1ccc(C(F)(F)F)cc1O (centres unmarked) [Example 8] | 6.9 nM
13 | Cc1nc(N[C@@H]2CCC[C@@H](O)C2)nnc1-c1ccc(C(F)(F)F)cc1O [Example 166] | 23 nM
14 | Cc1nc(N[C@@H]2CCCC(F)(F)[C@H]2O)nnc1-c1ccc(C(F)(F)F)cc1O [Example 48] | 34 nM
15 | Cc1nc(NC[C@@H]2CCCO2)nnc1-c1ccc(C(F)(F)F)cc1O [Example 18] | 88 nM
16 | Cc1nc(NC2CCC(C(N)=O)NC2)nnc1-c1ccc(C(F)(F)F)cc1O (centres unmarked) [Example 173] | 58 nM

Row | Structure (SMILES) | IC50
17 | Cc1ccc(-c2nnc(N[C@@H]3CCCC[C@@]3(C)O)nc2C)c(O)c1 [Example 55] | 11 nM
18 | Cc1nc(NC[C@H]2COCCN2)nnc1-c1ccc(C(F)(F)F)cc1O [Example 142] | 340 nM
19 | Cc1nc(N[C@H]2CCNC2=O)nnc1-c1ccc(OC(F)(F)F)cc1O [Example 72] | 8.3 nM
20 | Cc1nc(N[C@H]2C[C@@](C)(O)C2)nnc1-c1ccc(OC(F)(F)F)cc1O [Example 50] | 31 nM
21 | C[C@]1(O)C[C@@H](Nc2nnc(-c3ccc(OC(F)(F)F)cc3O)c(C3CC3)n2)C1 [Example 120] | 83 nM
22 | Cc1nc(N[C@H]2CCCC[C@H]2O)nnc1-c1ccc(C(F)(F)F)cc1O [Example 20] | 34 nM
23 | Cc1nc(NC[C@@H]2CCCN2)nnc1-c1ccc(C(F)(F)F)cc1O [Example 134] | 38 nM
24 | CC(=O)N1CCC[C@@H](Nc2nnc(-c3ccc(C(F)(F)F)cc3O)c(C)n2)C1 [Example 154] | 31 nM
25 | COc1ccc(-c2nnc(N[C@@H]3CCOC[C@H]3O)nc2C)c(O)c1 [Example 61] | 36 nM
26 | C[C@]1(O)C[C@@H](Nc2nnc(-c3ccc(Cl)cc3O)c(C3CC3)n2)C1 [Example 121] | 43 nM
27 | CC(=O)NCCC1(CNc2nnc(-c3ccc(C(F)(F)F)cc3O)c(C)n2)CCC1 [Example 104] | 91 nM
28 | Cc1nc(N[C@H]2CCCNC2=O)nnc1-c1ccc(C(F)(F)F)cc1O [Example 45] | 24 nM
29 | CC(=O)N[C@H]1C[C@@H](CNc2nnc(-c3ccc(C(F)(F)F)cc3O)c(C)n2)C1 [Example 157] | 5.7 nM
30 | Cc1nc(N[C@@H]2CCCN(CC3CC3)C2)nnc1-c1ccc(C(F)(F)F)cc1O [Example 178] | 4.2 nM
31 | Cc1nc(NCC(F)F)nnc1-c1ccc(C(F)(F)F)cc1O [Example 87] | 130 nM
32 | Cc1ccc(-c2nnc(N[C@@H]3CCCC[C@H]3O)nc2C2CC2)c(O)c1 [Example 117] | 19 nM
